In the supplement of paper PMC10307832:

How the values were obtained:
Assay in all cases: relative viability (nuclei count vs DMSO), 5 days (fraction); higher = more cells survive
KN-93 = compound: CN(C/C=C/C1=CC=C(C=C1)Cl)CC2=CC=CC=C2N(CCO)S(=O)(=O)C3=CC=C(C=C3)OC [KN-93]
In short: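 Hoechst staining, done together with fixation and permeabilisation, marked nuclei for 4× imaging and MetaXpress counting. This followed 5 days without medium change after lung cancer cell lines, kept overnight at 37 °C in 1536-well plates, were pinned with five library-drug doses (not always all listed) spaced by √10 on vehicle-anchored plates. Viability is the ratio of treated-well to vehicle-well nuclei, expressed as a median across plates. Plates passed only at control CV below 25% with at least one doubling.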

KN-93 + Pictilisib = compound: CN(C/C=C/C1=CC=C(C=C1)Cl)CC2=CC=CC=C2N(CCO)S(=O)(=O)C3=CC=C(C=C3)OC [KN-93] + CS(=O)(=O)N1CCN(Cc2cc3nc(-c4cccc5[nH]ncc45)nc(N4CCOCC4)c3s2)CC1 [Pictilisib] (partner 1 µM)
In short: (§1)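 Relative viability equals treated-well nuclei counts divided by vehicle-well nuclei counts. Counts came from 4× images of lung cancer cell lines grown in 1536-well plates for 5 days after pin-tool dosing on the day after seeding. Dosing used one drug alone or a fixed anchor-drug dose plus five library-drug doses (not always all listed) in √10 steps, and values are medians of duplicate plates.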

KN-93 + Linsitinib = compound: CN(C/C=C/C1=CC=C(C=C1)Cl)CC2=CC=CC=C2N(CCO)S(=O)(=O)C3=CC=C(C=C3)OC [KN-93] + C[C@]1(O)C[C@@H](c2nc(-c3ccc4ccc(-c5ccccc5)nc4c3)c3c(N)nccn32)C1 [Linsitinib] (partner 1 µM)
In short: as §1

KN-93 + Alpelisib = compound: CN(C/C=C/C1=CC=C(C=C1)Cl)CC2=CC=CC=C2N(CCO)S(=O)(=O)C3=CC=C(C=C3)OC [KN-93] + Cc1nc(NC(=O)N2CCC[C@H]2C(N)=O)sc1-c1ccnc(C(C)(C)C(F)(F)F)c1 [Alpelisib] (partner 2 µM)
In short: as §1

KN-93 + Navitoclax = compound: CN(C/C=C/C1=CC=C(C=C1)Cl)CC2=CC=CC=C2N(CCO)S(=O)(=O)C3=CC=C(C=C3)OC [KN-93] + CC1(C)CCC(c2ccc(Cl)cc2)=C(CN2CCN(c3ccc(C(=O)NS(=O)(=O)c4ccc(N[C@H](CCN5CCOCC5)CSc5ccccc5)c(S(=O)(=O)C(F)(F)F)c4)cc3)CC2)C1 [Navitoclax] (partner 0.5 µM)
In short: as §1

KN-93 + Crizotinib = compound: CN(C/C=C/C1=CC=C(C=C1)Cl)CC2=CC=CC=C2N(CCO)S(=O)(=O)C3=CC=C(C=C3)OC [KN-93] + C[C@@H](Oc1cc(-c2cnn(C3CCNCC3)c2)cnc1N)c1c(Cl)ccc(F)c1Cl [Crizotinib] (partner 1 µM)
In short: as §1

KN-93 + Foretinib = compound: CN(C/C=C/C1=CC=C(C=C1)Cl)CC2=CC=CC=C2N(CCO)S(=O)(=O)C3=CC=C(C=C3)OC [KN-93] + COc1cc2c(Oc3ccc(NC(=O)C4(C(=O)Nc5ccc(F)cc5)CC4)cc3F)ccnc2cc1OCCCN1CCOCC1 [Foretinib] (partner 0.25 µM)
In short: as §1

KN-93 + Olaparib = compound: CN(C/C=C/C1=CC=C(C=C1)Cl)CC2=CC=CC=C2N(CCO)S(=O)(=O)C3=CC=C(C=C3)OC [KN-93] + O=C(c1cc(Cc2n[nH]c(=O)c3ccccc23)ccc1F)N1CCN(C(=O)C2CC2)CC1 [Olaparib] (partner 8 µM)
In short: as §1

KN-93 + Bortezomib = compound: CN(C/C=C/C1=CC=C(C=C1)Cl)CC2=CC=CC=C2N(CCO)S(=O)(=O)C3=CC=C(C=C3)OC [KN-93] + CC(C)C[C@H](NC(=O)[C@H](Cc1ccccc1)NC(=O)c1cnccn1)B(O)O [Bortezomib] (partner 0.002 µM)
In short: as §1

KN-93 + Lapatinib = compound: CN(C/C=C/C1=CC=C(C=C1)Cl)CC2=CC=CC=C2N(CCO)S(=O)(=O)C3=CC=C(C=C3)OC [KN-93] + CS(=O)(=O)CCNCc1ccc(-c2ccc3ncnc(Nc4ccc(OCc5cccc(F)c5)c(Cl)c4)c3c2)o1 [Lapatinib] (partner 2 µM)
In short: as §1

KN-93 + AZD7762 = compound: CN(C/C=C/C1=CC=C(C=C1)Cl)CC2=CC=CC=C2N(CCO)S(=O)(=O)C3=CC=C(C=C3)OC [KN-93] + NC(=O)Nc1cc(-c2cccc(F)c2)sc1C(=O)N[C@H]1CCCNC1 [AZD7762] (partner 0.2 µM)
In short: as §1

Work on NCI-H1703 yielded a relative viability (KN-93; 0.08 µM) of 0.871, a relative viability (KN-93; 0.253 µM) of 0.89 and a relative viability (KN-93; 2.53 µM) of 0.841. It also gave a relative viability (KN-93; 8 µM) of 0.459, a relative viability (KN-93 + Pictilisib; first compound 0.08 µM) of 0.257 and a relative viability (KN-93 + Pictilisib; first compound 0.253 µM) of 0.307. It also gave a relative viability (KN-93 + Pictilisib; first compound 2.53 µM) of 0.211, a relative viability (KN-93 + Pictilisib; first compound 8 µM) of 0.247 and a relative viability (KN-93 + Linsitinib; first compound 0.08 µM) of 1.14. The relative viability (KN-93 + Linsitinib; first compound 2.53 µM) was 0.976, the relative viability (KN-93 + Linsitinib; first compound 8 µM) was 0.389 and the relative viability (KN-93 + Alpelisib; first compound 0.08 µM) was 0.298. It also gave a relative viability (KN-93 + Alpelisib; first compound 0.253 µM) of 0.319, a relative viability (KN-93 + Alpelisib; first compound 2.53 µM) of 0.304 and a relative viability (KN-93 + Alpelisib; first compound 8 µM) of 0.227. The relative viability (KN-93 + Navitoclax; first compound 0.08 µM) was 0.936, the relative viability (KN-93 + Navitoclax; first compound 0.253 µM) was 1.11 and the relative viability (KN-93 + Navitoclax; first compound 2.53 µM) was 1.04. The relative viability (KN-93 + Navitoclax; first compound 8 µM) was 0.179, the relative viability (KN-93 + Crizotinib; first compound 0.08 µM) was 0.677 and the relative viability (KN-93 + Crizotinib; first compound 0.253 µM) was 1.03. The relative viability (KN-93 + Crizotinib; first compound 2.53 µM) was 0.911, the relative viability (KN-93 + Crizotinib; first compound 8 µM) was 0.225 and the relative viability (KN-93 + Foretinib; first compound 0.08 µM) was 0.351. It also gave a relative viability (KN-93 + Foretinib; first compound 0.253 µM) of 0.364, a relative viability (KN-93 + Foretinib; first compound 2.53 µM) of 0.352 and a relative viability (KN-93 + Foretinib; first compound 8 µM) of 0.238. For the same cell line, the relative viability (KN-93 + Olaparib; first compound 0.08 µM) was 0.432, the relative viability (KN-93 + Olaparib; first compound 2.53 µM) was 0.372 and the relative viability (KN-93 + Olaparib; first compound 8 µM) was 0.181. The relative viability (KN-93 + Bortezomib; first compound 0.08 µM) was 0.381, the relative viability (KN-93 + Bortezomib; first compound 0.253 µM) was 0.302 and the relative viability (KN-93 + Bortezomib; first compound 2.53 µM) was 0.418. It also gave a relative viability (KN-93 + Bortezomib; first compound 8 µM) of 0.166, a relative viability (KN-93 + Lapatinib; first compound 0.08 µM) of 1.06 and a relative viability (KN-93 + Lapatinib; first compound 0.253 µM) of 1.41. The relative viability (KN-93 + Lapatinib; first compound 2.53 µM) was 1.03, the relative viability (KN-93 + Lapatinib; first compound 8 µM) was 0.265 and the relative viability (KN-93 + AZD7762; first compound 0.08 µM) was 0.117. For the same cell line, the relative viability (KN-93 + AZD7762; first compound 0.253 µM) was 0.115, the relative viability (KN-93 + AZD7762; first compound 2.53 µM) was 0.105 and the relative viability (KN-93 + AZD7762; first compound 8 µM) was 0.153.
